This test deals with T1, Putative farnesyl pyrophosphate synthase (Cryptosporidium parvum (strain Iowa II), UniProt Q5CR09).
T1 sequence (Q5CR09 whole entry): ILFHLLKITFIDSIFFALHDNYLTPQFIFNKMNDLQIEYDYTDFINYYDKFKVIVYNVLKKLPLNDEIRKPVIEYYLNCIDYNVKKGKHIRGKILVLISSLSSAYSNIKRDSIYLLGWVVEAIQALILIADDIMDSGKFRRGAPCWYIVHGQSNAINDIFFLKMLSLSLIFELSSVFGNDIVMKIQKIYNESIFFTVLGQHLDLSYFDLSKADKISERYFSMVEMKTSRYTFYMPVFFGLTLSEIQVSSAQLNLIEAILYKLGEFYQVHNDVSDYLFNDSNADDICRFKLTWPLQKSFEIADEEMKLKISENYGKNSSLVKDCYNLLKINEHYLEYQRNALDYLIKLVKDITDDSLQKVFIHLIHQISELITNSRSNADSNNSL
Description: Enzymatic Assay. The settings on record: pH 7.7; 37 °C. As for the experimental part:
Enzymatic assay using CpNPPPS was assayed using Reed and Rilling method with some modification.

Molecules are shown by their SMILES.

What is called IC50 is the concentration that inhibits the measured activity by half. A high value points to a need for much substance. A word on the Ki: it is a measure of affinity in units of concentration, obtained from inhibition or displacement. A higher Ki goes with a looser hold on the target. Turning to `O=P(O)(O)C(O)(Cn1ccnc1)P(=O)(O)O`, it took 30.1 nM to reach half-maximal inhibition (IC50) and the Ki is 0.05 nM.
For `O=P(O)(O)C(O)(Cc1cccnc1)P(=O)(O)O` [JMC515594 Compound 64], in that order: 45.7 nM and 0.38 nM.

The record behind these values is BindingDB's records for doi:10.1016/j.chembiol.2008.10.017 (University of Toronto, 2008).
